Source: US20130281397A1, “TREATMENT OF DISEASES BY EPIGENETIC REGULATION” (RVX Therapeutics Inc., priority 2012, published 2013)

Key:
[1] = system: Human AML MV-4-11 cells; experiment: Inhibition of cell proliferation in human AML MV-4-11 cells; assay type: cell-based; parameters: key: Active: Compounds with an IC50 value less than 30 uM were deemed to be active; conditions: 72 hours, CellTiter Aqueous One Solution, 30 uM to 0.2 μM
Experimental: MV4-11 cells: 96-well plates were seeded with 5×10^4 cells per well of exponentially growing human AML MV-4-11 (CRL-9591) cells and immediately treated with two-fold dilutions of test compounds, ranging from 30 uM to 0.2 μM. Triplicate wells were used for each concentration, as well as a media only and three DMSO control wells. The cells and compounds were incubated at 37° C., 5% CO2 for 72 hours before adding 20 μL of the CellTiter Aqueous One Solution (Promega) to each well and incubating at 37° C., 5% CO2 for an additional 3-4 hours. The absorbance was taken at 490 nm in a spectrophotometer and the percentage of proliferation relative to DMSO-treated cells was calculated after correction from the blank well. IC50 were calculated using the GraphPad Prism software.

[2] = target: T1, Brd4 bromodomain 1 (Homo sapiens, UniProt O60885); experiment: Inhibition of binding of tetra-acetylated histone H4 and Brd4 bromodomain 1 by TR-FRET; conditions: His-tagged bromodomain 200 nM, biotinylated tetra-acetylated histone H4 peptide 25-50 nM, 2 hours at room temperature
T1 construct: made in house; host or cells: E. coli BL21(DE3)

[3] = system: c-myc; experiment: Inhibition of c-myc expression (mRNA, real-time PCR) in MV4-11 cells; assay type: cell-based, Human; parameters: key: Active: Compounds with an IC50 value less than 30 μM were deemed to be active; conditions: 3 hours at 37° C., duplex with cyclophilin
Experimental: MV4-11 cells (2.5×10^4 cells) were plated in 96 well U-bottom plates with test compound or DMSO (0.1%), and incubated for 3 hours at 37° C. Cells were then harvested by centrifugation, lysed, and mRNA was isolated using the mRNA catcher plus kit (Invitrogen). Reverse transcription of the mRNA and duplex amplification of the c-myc and cyclophilin cDNAs were performed using the RNA Ultrasense kit (Invitrogen) and a ViiA7 real-time PCR machine (Applied Biosystems). IC50 values were determined from a dose response curve.

Question: For `COc1cc2nc(-c3cc(C)c(O)c(C)c3)[nH]c(=O)c2c(OC)c1CN1CCOCC1` [Example 75, 2-(4-hydroxy-3,5-dimethylphenyl)-5,7-dimethoxy-6-(morpholinomethyl)quinazolin-4(3H)-one], which melting point is on record?
Answer: Its melting point is 237 to 239.1 °C.

Question: What about the “cell proliferation activity (<30 uM)” value [1] of the same compound?
Answer: The value was “Active”.

Question: What about the “FRET activity (<50 uM)” value [2] of the same compound?
Answer: Its value is “Active”.

Question: And the “c-myc activity (<30 uM)” value [3]?
Answer: The value was “Active”.
